Results as given in patent US20150174034A1, “TYROSINASE INHIBITORS” (Avon Products, Inc., priority 2013, published 2015).

What was measured:
[1] = tested on: B16 mouse melanoma cells; experiment: Inhibition of melanin production, B16 melanoma cell assay; type: cell-based; conditions: 4 days, alpha MSH, normalized to cell viability
Procedure: The effects of various test compounds on melanin levels were determined by performing assays using B16 melanoma cells. These cells are known to constitutively produce melanin and are a commonly utilized and accepted model system for monitoring the inhibition of melanin synthesis. The B16 mouse melanoma cells were seeded (ATCC, cat. #: CRL-6475) into 96-well tissue culture-treated plates (BD Falcon) and treated with test actives or controls in phenol red free DMEM (Mediatech; cat. #: 17-205-CV) with 2 nanogram/ml of alpha MSH (Fluka; cat #:63605). The cells were examined for their ability to modulate pigment formation. […] Tests were performed in 6 replicates each. Following the treatment period (4 days), the level of pigment produced or melanin synthesized was quantified by reading the absorbance at 540 nm using a standard microplate reader (Tecan Group Ltd.).
After quantifying the amount of melanin, cell viability was determined using the MTT conversion method. The MTT conversion method measures the reduction of the MTT dye from a yellow colored, water-soluble, tetrazolium salt to a bluish-purple colored insoluble formazan precipitate by NAD(P)H-dependent microsomal dehydrogenase enzymes, which only function in viable cells. The intensity of the blue color is indicative of cell viability. After quantifying the amount of melanin pigment produced, the cells were exposed to MTT dye solution (1 mg/ml) for two to three hours. Formazan material was solubilized with reagent alcohol (95% ethanol: 5% isopropanol) and shaken on an orbital shaker for 15-30 minutes. MTT dye uptake and conversion by viable cells were determined by measuring the extracted formazan at 570 nm using a microplate reader. Total pigmentation was calculated, normalized to cell viability values and expressed as the average percent change in melanin activity relative to control of the six experiments performed.
The assay data in Table 2 uses the following scale: 0: <10% decrease; +: between […] decrease; ++: 31-50% decrease; +++: between 51-70% decrease; ++++: >71% decrease; C=cytotoxic

[2] = tested on: Mushroom tyrosinase; experiment: Mushroom tyrosinase assay; type: biochemical; conditions: L-Tyrosine substrate, 25° C., 30 min
Procedure: Mushroom tyrosinase and L-Tyrosine were obtained from Sigma-Aldrich, Inc. (St. Louis, Mo.). The enzyme activity was measured in buffer containing 100 mM phosphate buffer pH 6.8, 5% absolute ethanol, 2 micrograms/milliliter mushroom tyrosinase, and 0.2 mg/ml L-Tyrosine. The reaction (conversion of L-Tyrosine to DOPAchrome) was conducted in triplicates at 25° C. for 30 min, and absorbance was then measured at 492 nm. Kojic Acid was used as a positive control inhibitor in these assays. Percent change in tyrosinase activity relative to vehicle control was calculated.

[3] = tested on: Human Epidermal Melanocytes, neonatal, darkly pigmented donor (HEMn-DP); experiment: Human primary melanocyte pigmentation assay (HEMn-DP); type: cell-based; conditions: 5 days, normalized to cell viability
Procedure: The effects of various test compounds on melanin productions were determined by performing assays using Human Epidermal Melanocytes, neonatal, darkly pigmented donor (HEMn-DP). The HEMn-DP cells were seeded (Invitrogen; cat. #: C-202-5C) into 6-well tissue culture-treated plates (BD Falcon) and treated with test actives or controls in Medium 254 (Invitrogen; cat. #: M-254-500) supplemented with 1% HMSG (Invitrogen; cat. #: S-002-5) and 1% P/S. The cells were examined for their ability to modulate pigment formation. […] Tests were performed in triplicates each. Following the treatment period (5 days), supernatants were aspirated. The melanin was extracted with 0.5 ml of 2N NaOH for 30 minutes at 80° C. The level of melanin synthesized within the cells was quantified by reading the absorbance at 405 nm using a standard microplate reader (Tecan Group Ltd.).
The cell viability was determined using the MTT conversion method. The MTT conversion method measures the reduction of the MTT dye from a yellow colored, water-soluble, tetrazolium salt to a bluish-purple colored insoluble formazan precipitate by NAD(P)H-dependent microsomal dehydrogenase enzymes, which only function in viable cells. The intensity of the blue color is indicative of cell viability. […] The cells were then exposed to MTT dye solution (1 mg/ml) for two to three hours. Formazan material was solubilized with reagent alcohol (95% ethanol: 5% isopropanol) and shaken on an orbital shaker for 15-30 minutes. MTT dye uptake and conversion by viable cells were determined by measuring the extracted formazan at 570 nm using a microplate reader. Total pigmentation was calculated and normalized to cell viability values. The average percent change in melanin relative to control of the triplicates from the Human Primary Melanocyte Pigmentation Assay (HEMn-DP Pigmentation) is reported in the Table 3 in accordance with the scale: 0: <10% decrease in pigmentation level; +: between 11-30% decrease; ++: between 31-50% decrease; +++: between 51-70% decrease; ++++: >71% decrease; C=cytotoxic.

[4] = tested on: MELANODERM (MEL-300-B) human skin model; experiment: 3D skin equivalent tissue pigmentation assay (MELANODERM); type: cell-based; conditions: topical, tissues collected Day 11
Procedure: The effect of the tyrosinase inhibitors on melanin levels was investigated using a MELANODERM™ (MEL-300-B, MatTek Corp., Ashland, Mass.) human skin model. MELANODERM™ is a viable reconstituted three-dimensional human skin equivalent containing melanocytes derived from African-American donors. Tissues were maintained in culture medium EPI-100-NMM-113 at 37° C. as recommended by the manufacturer.
10 μl of the solution was applied topically to the MELANODERM™ tissue while culture medium was added on days 1, 2, 4, 7, and 9. Control tissues were treated with the 10 μl of corresponding vehicle only. On Day 11, tissues were collected and homogenized in a buffer containing 1% SDS, 50 mM EDTA, and 10 mM Tris, pH 6.8. To each homogenate, protease K (5 mg/ml) was added and incubated overnight at 45° C. Additional protease K was added and incubated for 4 hours at 45° C., followed by the addition of 0.5M sodium carbonate and 30% H2O2 and incubation at 80° C. for 30 minutes. The samples were cooled down to room temperature, and extracted with chloroform/methanol (2:1). After centrifugation at 10,000 g for 10 minutes, absorbance of the top phase was measured at 450 nm. Percent change in melanin levels in treated tissue was calculated relative to control. The average percent change in melanin relative to control of the three tissues is reported in the Table 4 in accordance with the scale: 0: <7% decrease in pigmentation level; +: between 8-14% decrease; ++: between 15-20% decrease; +++: between 21-30% decrease; ++++: >31% decrease; C=cytotoxic

Row | Tyrosinase Inhibition (percent change in tyrosinase activity compared to DMSO vehicle control) ([2]; concentration 0.001%) | Tyrosinase Inhibition (percent change in tyrosinase activity compared to DMSO vehicle control) ([2]; concentration 0.01%) | SMILES | B16 Assay Pigmentation Decrease (percent change in melanin compared to DMSO vehicle control) ([1]; concentration 0.0001%) | Human primary melanocyte pigmentation assay (change in melanin compared to DMSO vehicle control) ([3]; concentration 0.0001%) | Human primary melanocyte pigmentation assay (change in melanin compared to DMSO vehicle control) ([3]; concentration 0.001%) | B16 Assay Pigmentation Decrease (percent change in melanin compared to DMSO vehicle control) ([1]; concentration 0.001%) | 3D Tissue Pigmentation Assay (change in melanin compared to vehicle control) ([4]; concentration 0.05%) | 3D Tissue Pigmentation Assay (change in melanin compared to vehicle control) ([4]; concentration 0.1%)
1 | −36% | −75% | Oc1ccc(C=NNC(=S)NCC2CCCO2)c(O)c1 (centres unmarked) [AV6989] | −79% | – | – | – | – | –
2 | – | – | Cc1ccc(/C=N/NC(=S)NCC2CCCO2)s1 (centres unmarked) [AV3793] | + (between 20-30% decrease) | 0 (<10% decrease in pigmentation level) | +++ (between 51-70% decrease) | +++ (between 51-70% decrease) | ++ (between 15-20% decrease) | +++ (between 21-30% decrease)
3 | – | – | C/C(=N/NC(=S)NC(C)C)c1ccc2c(c1)OCO2 [AV2043] | ++ (31-50% decrease) | + (between 11-30% decrease) | ++ (between 31-50% decrease) | – | +++ (between 21-30% decrease) | +++ (between 21-30% decrease)
4 | – | – | C/C(=N/NC(=S)NCC1CCCO1)c1ccc2c(c1)OCO2 (centres unmarked) [AV1221] | ++ (31-50% decrease) | + (between 11-30% decrease) | ++++ (>71% decrease) | ++++ (>71% decrease) | +++ (between 21-30% decrease) | ++ (between 15-20% decrease)
